This note sets out measurements from US20060142326A1, “Use of pyrazolopyridines for the treatment of cognitive deficits” (priority 2003, published 2006).

Data set [1] concerns SH-SY5Y cells. In words: Toxicity induced by 6-hydroxydopamine (oxidative stress) on SH-SY5Y cells, MTT test. The following applies: 6-OHDA treatment. The class given is cell-based, human. As for the experimental part: In this example, cells from the SH-SY5Y line were placed in culture according to the techniques known to experts in the field. These cells, derived from a human neuroblast, have properties which characterise a neuronal precursor at a premature stage of development. The toxic used is 6-hydroxydopamine (6-OHDA) which induces oxidative stress. Toxicity is measured by an MTT test.

For data set [2], the system named is ventral spinal cord cells. In words: Toxicity induced by NMDA/serine on ventral spinal cord cells, MTT test. The class given is cell-based, Wistar rat. Particulars: 25 μM NMDA + 10 μM D-serine, 3 hours. As for the experimental part:
The cells are isolated from 14 day old Wistar rat embryos. Upon their arrival, the pregnant female rats are sacrificed by means of carbon dioxide. The series of embryos is taken and placed in a box containing PBS. The spinal cord of each embryo is dissected and the ventral cord is separated from the dorsal cords. The ventral cords are then trypsinised at 37° C. for 20 mins. The effect of the trypsin is halted by the addition of a medium made up from Leibovitz 15 medium, 20% horse serum, N2 (1×) supplement, 20% glucose (3.2 mg/ml), 7.5% bicarbonate (1.8 mg/ml) and L-glutamine (2 mM). The cells are dissociated by trituration. The accumulated tissue is removed and the dissociated cells are then quantified by dying with trypan blue. The cells sown at a density of 250 000 cells/cm^2 in a medium made up from neurobasal medium, horse serum (2%), B27 (1×) supplement, and glutamine (2 mM). After 3 days of in vitro culture, an anti-mitotic agent, ARA-C (5 μM), is added to the cells so as to inhibit production of glial cells. The cells are placed in culture at 37° C. in a humidified incubator (5% CO2) for 9 days. […] The results are standardised to the average of the untreated controls and analysed statistically by means of a Wilcoxon test with ρ less than 0.05. Toxicity is measured using the MTT test. […] The absorbance at 550 nm is read and the viability percentage is calculated.

In data set [3] the test system is cortical neurons. In words: Toxicity induced by NMDA/serine on cortical neurons, MTT test. The class given is cell-based, Wistar rat. The following applies: 20 μM NMDA + 10 μM D-serine, six hours. As for the experimental part:
(§1) 16 day old Wistar rat embryos are taken and the cortexes dissected. Following trypsination at 37° C. for 25 minutes, the cells are dissociated by trituration. The cells are sown in minimum essential medium, supplemented with 10% horse serum and 10% foetal calf serum and 2 mM glutamine, at a density of 300,000 cells per cm^2. After 4 days in culture half of the medium is changed with minimum essential medium supplemented with 5% horse serum and 2 mM glutamine. […] After seven and eleven days of culture, half of the medium is changed with conditioned medium. The conditioned medium is made up from MEM containing 5% horse serum and 2 mM glutamine; this medium is passed over a carpet of cortical astrocytes for a night before being used. On day 14, the cells are treated with the etazolate inhibitor compound, before adding toxics, 50 μM kainate or 20 μM N-methyl-D-aspartate in the presence of 10 μM D-serine. All of the treatments are carried out at least in duplicate and in at least two different cultures. Following an incubation of six hours the toxicity is measured by an MTT test. The results, standardised to the untreated average, are statistically analysed by the Wilcoxon test. The significant value is established at ρ less than or equal to 0.05. Toxicity is measured using the MTT test. […] The absorbance at 550 nm is read and the viability percentage is calculated.
In general terms: Tetrazolium assays rely on reduction of a dye to a coloured formazan, in cell work by metabolically active cells.

For data set [4], the system named is old rats. Nature of the data set: Aquatic labyrinth test (Morris pool) in old rats. The class given is in vivo, rat. The source says:
This test is used to evaluate the capacities to memorise and to manage spatial information in rats in an aversive situation. The task consists for the animal of locating with the help of distance indices a <<refuge >> platform, invisible by immersion in a tank filled with opacified water. The device makes it possible to evaluate the reference memory of the animal (the platform remains in the same place on each day of the test). This test makes it possible to appreciate the […] performances dependent upon the functions of the hippocampus of the animals tested. In particular, this test makes it possible to discriminate between the performances of adult rats (10 months) and those of old rats (30 months). The hippocampus is a cerebral structure the functions of which are altered prematurely in Alzheimer's disease. The Morris pool test is therefore particularly recognised by experts in the field as making it possible to appreciate the pharmacological properties of compounds intended to treat Alzheimer's disease and other diseases associated with a cognitive deficit. Old rats treated with etazolate (3 mg/kg and 10 mg/kg) administered orally and rats treated by the vehicle were used for this study. The performances of these animals in the Morris pool test were compared to those of a control group of adult rats.

For data set [5], the system named is cerebral infarction in rats. Nature of the data set: Model of cerebral infarction in rats (occlusion of the internal carotide and medium arteries of the brain). The class given is in vivo. The following applies: rat. As for the experimental part:
The in vivo protective effect of etazolate was evaluated in a model of cerebral infarction in rats. During this study, a cerebral infarction was brought about by an intracavity occlusion of the internal carotide and the medium arteries of the brain. A group of eight rats was treated with etazolate (10 mg/kg, p.o.) before and several times after occlusion. A group of eight rats was treated with the reference compound, L-NAME (1 mg/kg, i.p.) before and several times after occlusion. A group of eight rats was only treated with the vehicle. The effects were evaluated by clinical observations, neurological function tests and by establishing the size of the infarction at the end of the study.

In data set [6] the test system is granular cells of the cerebellum. In words: Toxicity induced by NMDA/serine on granular cells of the cerebellum, MTT test. The class given is cell-based, Wistar rat. Particulars: 100 μM NMDA + 10 μM D-serine, six hours. As to the method:
(§2) Seven day old Wistar rats are decapitated and their cerebella are dissected. After having removed the meninges, the tissue is cut into small pieces and trypsinised for 15 minutes at 37° C. The cells are disassociated by trituration and placed in cultures at a density of 300,000 cells per cm^2 in Eagle's base medium supplemented with 10% foetal calf serum and 2 mM glutamine. The following day 10 μM ARA-C, an antimitotic, is added so as to prevent proliferation of the glial cells. The cells are treated for 9 days after placing in culture with the etazolate inhibiting compound, before adding toxics, 50 μM kainate or 100 μM N-methyl-D-aspartate in the presence of 10 μM D-serine. 8-bromo-cAMP is added just before the toxics. All of the treatments are carried out at least in duplicate and in at least two different cultures. Following an incubation of six hours, the toxicity is measured by an MTT test. The results, standardised to the untreated average, are statistically analysed by the Wilcoxon test. The significant value is established at p less than or equal to 0.05. Toxicity is measured using the MTT test. Following incubation with the compounds, MTT is added at a final concentration of 0.5 mg/ml per well. The plaques are then incubated for 30 minutes at 37° C. in the dark. […] The absorbance at 550 nm is read and the viability percentage is calculated.

A short description of data set [7]: Single increasing oral dose study in healthy volunteers (tolerance, plasmatic dosage). The class given is in vivo, human. As for the experimental part: In this study, single, increasing doses of etazolate (0.5, 1, 2, 5, 10 and 20 mg) were administered orally in the form of capsules dosed at 0.5 and 5 mg to different and sequential groups of eight young, healthy, volunteer subjects of the male sex. This study was carried out in just one centre, double-blind, and two of the eight subjects were given a placebo. The parameters evaluated were clinical (appearance of adverse effects, of clinical signs, change in arterial pressure or heart rate), electrocardiographic (ECG recording) and biological tolerance (hematology and sanguineous biochemistry, urinary examination) for the 24 hrs following administration of the product. A plasmatic dosage of the product was carried out in each subject at different times before and after administration of the product (0.25-0.50-1.00-1.50-2.00-3.00-4.00-5.00-6.00-8.00-10.00-12.00 and 24.00 hours). A urinary dosage of the product was also carried out from urines collected before and after administration of the product (4, 4-8, 8-12 and 12-24 hours).

Data set [8] has as its system cortical neurons. Nature of the data set: Toxicity induced by kainate on cortical neurons, MTT test. The class given is cell-based, Wistar rat. Particulars: 50 μM kainate, six hours. As for the experimental part:
as §1

The test system of data set [9] is granular cells of the cerebellum. Nature of the data set: Toxicity induced by kainate on granular cells of the cerebellum, MTT test. The class given is cell-based, Wistar rat. Particulars: 50 μM kainate, six hours. As for the experimental part:
as §2

As for `CCOC(=O)c1cnc2c(cnn2CC)c1NN=C(C)C` [etazolate], the protective effect in [1] turned out to be 40%; in data set [2], 36%; in [3], 47%; in data set [6] it was 40%; in data set [8] it was 40%; in data set [9], 50%. Moreover, the “performances in the Morris pool test” value is reported as “slightly improves the performances of old rats” in data set [4] (3 mg/kg orally) and “importantly brings the performances of old animals closer to those of adult animals” in [4] (10 mg/kg orally, compared to adult rats). Moreover, the “neurological evaluation relative to the control group” value in data set [5] (10 mg/kg p.o.) was “improvement”. Also, the “reduction of the size of the infarction relative to the control” value in data set [5] (10 mg/kg p.o. before and several times after occlusion, average) worked out at 28%. Also, the hypoactivity in data set [5] (10 mg/kg p.o., control group 42%) stood at 31%. Also, the secondary effects entry in data set [7] (healthy male volunteers, single oral doses 0.5-20 mg) is “did not involve any secondary effects”. Besides, in data set [7] (healthy male volunteers, single oral doses 0.5-20 mg, 24 hrs), the “tolerance (clinical, electrocardiographic, biological)” value is given as “well tolerated”. Besides, the “absorption (plasmatic dosages)” value in data set [7] (humans, oral capsules, at strong doses) is recorded as “good absorption”.
